According to paper PMC9274761, “Effects of Structurally Different HDAC Inhibitors against Trypanosoma cruzi, Leishmania, and Schistosoma mansoni” (ACS Infectious Diseases, 2022):
Values joined by “and” are separate entries in the source; they are usually repeats but may differ in a detail not shown here. Equal entries are not always repeated. Where two headings read alike, the source gives them in different places.

Columns and labels:
[1] = test system: T. cruzi amastigotes and trypomastigotes; assay: T. cruzi infection assay in L929 cells (beta-galactosidase Tulahuen strain); type: cell-based, Trypanosoma cruzi; conditions: for selectivity index (SI), CC50/EC50: L929 CC50 / T. cruzi EC50; for EC50 / EC50, growth of T. cruzi amastigotes and trypomastigotes: mean ± SD; for EC50: read-out: EC50, growth of T. cruzi amastigotes and trypomastigotes
[2] = test system: L. amazonensis promastigotes; assay: Resazurin reduction assay, L. amazonensis promastigotes; type: cell-based; conditions: Leishmania amazonensis, read-out: percentage of inhibition, L. amazonensis promastigotes
[3] = test system: L. amazonensis amastigotes in primary mouse macrophages; conditions: 10 μM, 3 days, toxic = toxic for macrophages
in vitro = conditions: mouse
[4] = test system: L. donovani axenic amastigotes; assay: Resazurin reduction assay, L. donovani axenic amastigotes; type: cell-based; conditions: Leishmania donovani, read-out: percentage of inhibition, L. donovani axenic amastigotes
[5] = test system: newly transformed schistosomula (NTS); assay: Phenotypic screening on newly transformed schistosomula (NTS); type: cell-based, Schistosoma mansoni; conditions: for IC50: Schistosoma mansoni, 72 h, read-out: IC50, viability of NTS
[6] = test system: L. donovani promastigotes; assay: Resazurin reduction assay, L. donovani promastigotes; type: cell-based; conditions: Leishmania donovani, read-out: percentage of inhibition, L. donovani promastigotes
[7] = test system: human retinal pigment epithelial (RPE) cells; assay: MTT viability assay in RPE cells; type: cell-based; conditions: Homo sapiens, RPE, 48 h, read-out: IC50 in RPE cells (cell viability)
[8] = MTT viability assay in RPE cells; type: cell-based, human; conditions: human, retinal pigment epithelial (RPE) cells, read-out: percentage of RPE cell viability, 48 h
S. mansoni adult worms = assay: Phenotypic screening on S. mansoni adult worms; type: cell-based, Schistosoma mansoni; conditions: 72 h
[9] = Trypanosoma cruzi, L929, 96 h, infected L929 cells, 96 h
[10] = 40 μM, infected L929 cells, 96 h, toxic = L929 death
[11] = 80 μM, infected L929 cells, 96 h, toxic = L929 death
[12] = 160 μM, infected L929 cells, 96 h, toxic = L929 death
[13] = Trypanosoma cruzi, infected L929 cells, 96 h, read-out: percentage of T. cruzi growth inhibition
[14] = Trypanosoma cruzi, 2.5 μM, infected L929 cells, 96 h, toxic = L929 death, read-out: percentage of T. cruzi growth inhibition
[15] = Trypanosoma cruzi, 5 μM, infected L929 cells, 96 h, toxic = L929 death, read-out: percentage of T. cruzi growth inhibition
[16] = Trypanosoma cruzi, 10 μM, infected L929 cells, 96 h, toxic = L929 death, read-out: percentage of T. cruzi growth inhibition
[17] = Trypanosoma cruzi, 20 μM, infected L929 cells, 96 h, toxic = L929 death, read-out: percentage of T. cruzi growth inhibition
[18] = noninfected L929 fibroblast cells
[19] = 10 μM, infected L929 cells, 96 h, toxic = L929 death
[20] = 20 μM, infected L929 cells, 96 h, toxic = L929 death

SMILES	percentage of T. cruzi growth inhibition [1, 10]	percentage of T. cruzi growth inhibition [1, 11]	percentage of T. cruzi growth inhibition [1, 12]	inhibition at 1.25 µM [1, 13]	inhibition at 2.5 µM [1, 14]	inhibition at 5 µM [1, 15]	EC50, growth of T. cruzi amastigotes and trypomastigotes ([1]; infected L929 cells, 96 h)	CC50 at 96 h (in vitro; [18])	inhibition at 20 µM [4]	percentage of NTS activity, 72 h ([5]; 10 μM)	percentage of NTS activity, 72 h ([5]; 20 μM)	IC50 [5]	IC50 [7]	viability at 48 h, 1 µM [8]	viability at 48 h, 5 µM [8]	viability at 48 h, 10 µM [8]	viability at 48 h, 25 µM [8]	viability at 48 h, 50 µM [8]	percentage of NTS activity, 72 h ([5]; 1 μM)	percentage of activity (death induction), S. mansoni adult worms (S. mansoni adult worms; 20 μM)	also measured
O=C(Cn1ccnc1[N+](=O)[O-])NCc1ccccc1 [BZN, benznidazole, reference compound]	–	–	–	–	–	–	–	–	–	–	–	–	–	–	–	–	–	–	–	–	selectivity index (SI), CC50/EC50 [1]: 625; EC50 [1, 9]: 3.8 µM
O=C(CCCCSc1nc(-c2ccc(-c3ccccc3)cc2)cc(=O)[nH]1)NO [Compound 1]	toxic	toxic	toxic ^e	0%	0%	0%	inactive	20 µM	29 ± 14%	29.3 ± 0.9%	43.3 ± 1.9%	> 20 µM	–	–	–	–	–	–	–	–	inhibition at 10 µM [1, 16]: 0%; inhibition at 20 µM [1, 17]: 0%; inhibition at 20 µM [2]: 2.1 ± 3.2%; HCA outcome against intramacrophagic L. amazonensis amastigotes [3]: toxic
CC(C)(C)OC(=O)Nc1cccc(C(=O)/C=C/c2ccc(/C=C/C(=O)NO)cc2)c1 [Compound 4]	toxic	toxic	toxic	0%	0%	85%	–	5 µM	93.6 ± 0.4%	100% and 100.0 ± 0.0%	100% and 100.0 ± 0.0%	1.29 µM	15.6 µM	75.7 ± 11.4%	71.5 ± 12.8%	50.2 ± 8.4%	40.4 ± 9.8%	45.2 ± 6.6%	24% and 24.0 ± 0.0%	63.8 ± 0%	inhibition at 20 µM [6]: 95.9 ± 0.3%; percentage of T. cruzi growth inhibition [1, 19]: toxic; percentage of T. cruzi growth inhibition [1, 20]: toxic; selectivity index (SI), CC50/EC50 [1]: 1.25; EC50 [1, 9]: 4 ± 0.07 µM; inhibition at 0.8 µM [2]: 10.5 ± 2.9%; inhibition at 4 µM [2]: 95.7 ± 0.3%; inhibition at 20 µM [2]: 97.9 ± 0.4%; HCA outcome against intramacrophagic L. amazonensis amastigotes [3]: toxic; inhibition at 0.8 µM [4]: 39.5 ± 2%; inhibition at 4 µM [4]: 61.4 ± 4.3%; percentage of activity (death induction), S. mansoni adult worms (S. mansoni adult worms; 10 μM): 45.1 ± 3.9%
O=C(/C=C/c1ccc(NC(=O)Cc2cccc3ccccc23)cn1)NO [Compound 5]	toxic	toxic	toxic	0%	–	–	inactive	1.25 µM	–	31.0 ± 0.0%	30.8 ± 0.0%	> 20 µM	–	–	–	–	–	–	–	–	percentage of T. cruzi growth inhibition ([1]; 2.5 μM, infected L929 cells, 96 h, toxic = L929 death): toxic; percentage of T. cruzi growth inhibition ([1]; 5 μM, infected L929 cells, 96 h, toxic = L929 death): toxic; percentage of T. cruzi growth inhibition [1, 19]: toxic; percentage of T. cruzi growth inhibition [1, 20]: toxic
O=C(/C=C/c1ccc(Cc2nnc(Cc3cccc4ccccc34)o2)cc1)NO [Compound 7]	toxic	toxic	toxic	0%	0%	21%	inactive	5 µM	–	38.0 ± 1.2%	39.4 ± 1.0%	> 20 µM	–	–	–	–	–	–	–	–	percentage of T. cruzi growth inhibition [1, 19]: toxic; percentage of T. cruzi growth inhibition [1, 20]: toxic
CC1=C(/C=C/C(C)=C/C=C/C(C)=C/C(=O)Nc2ccccc2N)C(C)(C)CCC1 [Compound 8]	–	–	toxic	0%	0%	7%	–	80 µM	41.8 ± 1.4%	37.9 ± 0.0%	70% and 71.1 ± 1.0%	12.8 µM	> 50 µM	95.3 ± 28.7%	115 ± 9.4%	90.4 ± 16.7%	98.8 ± 4.6%	72 ± 5.8%	–	52.8 ± 2.8%	inhibition at 0.8 µM ([6]; 0.8 μM): 2.3 ± 1.4%; inhibition at 20 µM [6]: 6.3 ± 1.7%; selectivity index (SI), CC50/EC50 [1]: 5.7; EC50 [1, 9]: 13.9 µM; inhibition at 10 µM [1, 16]: 32%; inhibition at 20 µM [1, 17]: 78%; inhibition at 40 µM ([1]; Trypanosoma cruzi, 40 μM, infected L929 cells, 96 h, toxic = L929 death, read-out: percentage of T. cruzi growth inhibition): 76%; inhibition at 80 µM ([1]; Trypanosoma cruzi, 80 μM, infected L929 cells, 96 h, toxic = L929 death, read-out: percentage of T. cruzi growth inhibition): 88%; EC50 ([1]; infected L929 cells, 96 h): 14 ± 3.4 µM; inhibition at 0.8 µM [2]: 8.1 ± 2.1%; inhibition at 4 µM [2]: 8.3 ± 3.4%; inhibition at 0.8 µM [4]: 4.3 ± 1.1%; inhibition at 4 µM [4]: 5.8 ± 2.5%; percentage of activity (death induction), S. mansoni adult worms (S. mansoni adult worms; 10 μM): 36.1 ± 2.8%
Nc1ccccc1NC(=O)c1ccc(CNC(=O)OCc2cccnc2)cc1 [Compound 9, entinostat, reference compound]	toxic	toxic	toxic	0%	0%	0%	inactive	–	28.9 ± 0.9%	40.0 ± 2.0%	42.3 ± 0.0%	> 20 µM	–	–	–	–	–	–	–	–	inhibition at 10 µM [1, 16]: 0%; inhibition at 20 µM [1, 17]: 0%; HCA outcome against intramacrophagic L. amazonensis amastigotes [3]: toxic; CC50 at 96 h (in vitro): 20 µM; inhibition at 0.8 µM [4]: 6.7 ± 3.8%; inhibition at 4 µM [4]: 2.9 ± 10.1%
Cn1c(/C=C/C(=O)c2ccc(NC(=O)OC(C)(C)C)cc2)ccc1C(=O)NO [Compound 17]	–	–	–	–	–	–	–	–	–	100.0 ± 0.0%	100.0 ± 0.0%	1.23 µM	> 50 µM	74.2 ± 5.2%	91.8 ± 11.5%	102 ± 15.2%	91.9 ± 4.5%	77.4 ± 2.3%	28.0 ± 0.0%	58.6 ± 0%	–
CC(C)(C)OC(=O)Nc1ccc(C(=O)/C=C/c2ccc(C(=O)NO)cc2)cc1 [Compound 18]	–	–	–	–	–	–	–	–	–	100.0 ± 0.0%	100.0 ± 0.0%	1.26 µM	24.7 µM	67.9 ± 4.2%	73.8 ± 3.3%	71 ± 7.8%	50.3 ± 7.4%	43.1 ± 0.1%	26.0 ± 1.0%	56.0 ± 7.8%	percentage of activity (death induction), S. mansoni adult worms (S. mansoni adult worms; 10 μM): 43.1 ± 2.0%
CC(C)(C)OC(=O)Nc1cccc(C(=O)/C=C/c2ccc(C(=O)NO)cc2)c1 [Compound 19]	–	–	–	–	–	–	–	–	–	100.0 ± 0.0%	100.0 ± 0.0%	1.29 µM	48.7 µM	75.6 ± 16.9%	80.5 ± 13.7%	82 ± 12.3%	68.6 ± 1.3%	52.8 ± 16.1%	24.0 ± 0.0%	58.6 ± 0%	–
CC(C)(C)OC(=O)Nc1ccc(C(=O)/C=C/c2ccc(/C=C/C(=O)NO)cc2)cc1 [Compound 20]	–	–	–	–	–	–	–	–	–	100.0 ± 0.0%	100.0 ± 0.0%	1.32 µM	27.2 µM	80 ± 11%	71.6 ± 9.2%	63 ± 6%	59.5 ± 2.4%	45.6 ± 4.8%	22.0 ± 1.0%	40.5 ± 2.6%	percentage of activity (death induction), S. mansoni adult worms (S. mansoni adult worms; 10 μM): 31.3 ± 2.0%
